# “Also recorded” adds a separate entry of the source. Where two headings read alike, the source gives them in different places.
# Key:
# [1] = tested on: P. falciparum 3D7 strain; assay: SYBR Green I inhibition assay for the asexual stages of P. falciparum; type: cell-based, Plasmodium falciparum; conditions: 72 h, read-out: IC50^Pf Average (confidence interval-95%)
# Procedure: The P. falciparum 3D7 strain was kept in culture in a humidified incubator at 37 °C in RPMI-1640 medium with 25 mM NaHCO3, 25 mM HEPES (pH 7.4), 11 mM D-glucose, 3.67 mM hypoxanthine and 25 µg/mL gentamicin, supplemented with 0.5% (m/v) AlbuMAX II. The culture medium was changed daily, and the parasitaemia was maintained below 10% with 2.5% haematocrit in human erythrocytes.
# The parasites were synchronized through sterile 5% (m/v) D-sorbitol treatment over 10 min at 37 °C for the enrichment of ring-stage parasites. The cultures were pelleted by centrifugation at 600×g over 5 min. The parasitaemia was determined by microscope analysis of thin blood smears stained with Giemsa 10% (v/v) after methanol fixation. The initial parasitaemia was calculated from 1000 red blood cells (RBCs), and cultures were diluted to 0.5% parasitaemia and 2% haematocrit by adding the appropriate volumes of erythrocytes and medium. Parasite aliquots of 180 µL were distributed into 96-well plates previously prepared with 20 µL aliquots of a tenfold concentrated compound. Negative and positive control wells corresponding to non-parasitized erythrocytes and parasite cultures in the absence of compounds were set in parallel. The DMSO concentration was maintained below 0.05% (v/v). The plates were incubated for 72 h at 37 °C in a humidified incubator with a gas mixture of 90% N2, 5% O2 and 5% CO2. After incubation, the culture medium was removed, and the cells were resuspended in 100 µL PBS buffer (116 mM NaCl, 10 mM Na2HPO4, 3 mM KH2PO4) and lysed with 100 µL lysis buffer (20 mM Tris base, 5 mM EDTA, 0.0008% (v/v) Triton X-100, 0.008% (m/v) saponin, pH 8.0) containing 0.002% (v/v) SYBR Green I. Plates were incubated at room temperature for 30 min, and the fluorescence corresponding to the parasitic density was determined using a SpectraMAX Gemini EM plate reader (Molecular Devices Corp., Sunnyvale, CA) (excitation at 485 nm, emission at 535 nm). The half maximal inhibitory concentration (IC50^Pf) was determined by non-linear regression analysis of the resulting concentration-response curve using the software Origin 2016 (OriginLab Corporation).
# [2] = tested on: Hepatocarcinoma cells (HepG2); assay: Cytotoxicity evaluation, MTT assay; type: cell-based, human; conditions: HepG2, 72 h, read-out: IC50^HepG2, MTT Average (confidence interval-95%)
# Procedure: (§1) Hepatocarcinoma cells (HepG2) were cultivated in RPMI medium supplemented with 10% (v/v) fetal bovine serum and 0.2% (v/v) penicillin/streptomycin. The antibiotics were added to the medium to eliminate the potential interference of microbial contamination. Cells were cultivated at 37 °C and 5% CO2; the supplemented medium was changed every 2 days.
# (§2) For the experimental procedures, cells were trypsinized and transferred to a 96-well plate at 30,000 cells per well and incubated at 37 °C overnight for cell adhesion. Then, serial dilutions of the inhibitor candidates were added to the plate. Cells without any compounds were used as positive growth controls. The plate was incubated at 37 °C and 5% CO2 for 72 h. After incubation, the highest compound concentration to be considered (highest concentration without precipitation) was observed by microscopy. Cytotoxicity was evaluated by two different methods. The first is a colorimetric assay based on metabolic cell activity in the presence of 3-(4,5-dimethylthiazol-2-yl)-2,5-diphenyltetrazolium bromide (MTT). Briefly, mitochondrial enzymes can convert the MTT dye into the purple insoluble compound formazan. To each well, 20 µL MTT at 5 mg/mL was added, followed by incubation at 37 °C for 3 to 5 h. After incubation, the supernatant was removed, and formazan crystals were solubilized in 100 µL DMSO. The absorbance, which is proportional to the number of viable cells, was determined using a SpectraMAX Plus 384 plate reader (Molecular Devices Corp., Sunnyvale, CA) (λ = 570 nm). The second method is based on the uptake of neutral red, a dye that is retained inside the lysosomes of viable cells. To each well, after removal of culture media, 200 µL neutral red medium 40 µg/mL was added, followed by incubation at 37 °C for 3 to 5 h. After incubation, supernatant was dispensed, and 200 µL 0.5% (v/v) formaldehyde in 1% (m/v) CaCl2 was added to remove excess of the dye for 5 min. Supernatant was dispensed, and 100 µL alcohol-acid solution (50% (v/v) ethanol, 1% (v/v) glacial acetic acid) was added, and the plate was stirred until a homogeneous solution was formed. The absorbance was determined using a SpectraMAX Plus 384 plate reader (Molecular Devices Corp., Sunnyvale, CA) (λ = 540 nm). For both methods, the half maximal inhibitory concentration (IC50^HepG2) was determined by non-linear regression analysis of the resulting concentration-response curve using the software Origin 2016 (OriginLab Corporation).
# [3] = tested on: Hepatocarcinoma cells (HepG2); assay: Cytotoxicity evaluation, neutral red assay; type: cell-based, human; conditions: HepG2, 72 h, read-out: IC50^HepG2, NR Average (confidence interval-95%)
# Procedure: as §1, §2
# [4] = tested on: asexual intraerythrocytic stages of P. falciparum; assay: Speed of action studies (microscopy of thin blood smears); type: cell-based, Plasmodium falciparum; conditions: ring-stage parasites; for Parasite morphology during incubation: compound at tenfold the IC50, microscopy up to 36 h; for Speed of action: compound at tenfold the IC50, observed 0-36 h
# Procedure: Parasites in thin blood smears were observed by microscopy after 0, 8, 16, 24 and 36 h of incubation.
# [5] = tested on: P. falciparum; assay: Combination assays, isobologram analysis (FIC50 pairs); type: cell-based, Plasmodium falciparum; conditions: for Isobologram data, Additive: fraction of FIC50 pairs / Isobologram data, Additive: number of FIC50 pairs / Isobologram data, Antagonistic: fraction of FIC50 pairs / Isobologram data, Antagonistic: number of FIC50 pairs / Isobologram data, Synergic: number of FIC50 pairs: combination with artesunate; for Combination profile with artesunate: isobologram, IC50 equivalent ratios 1:4, 2:3, 1:1, 3:2, 4:1
# Procedure: Combinations of anti-malarial candidates with artesunate, an artemisinin derivative, were tested in fixed molar ratios based on the individual IC50 values that were previously determined by the SYBR Green I assay. Traditionally, a line (isobole) of additivity is used to distinguish between additive, synergic, and antagonistic interaction profiles. […] Thus, a systematic consideration of additivity ranges was included in the isobologram analysis, as previously described by Grabovsky and Tallarida. Concentration-response curves of individual compounds were used in the calculation of each pair’s additivity range (area within the upper and lower limits in Figs. 4 and 5). Fractional inhibitory concentration (FIC50) pairs plotted as points inside the additivity range indicate the expected sum of each compound effect, while points above and below the range indicate antagonistic and synergic interactions, respectively. The selected inhibitors were combined with artesunate in the IC50 equivalent ratios of 1:4, 2:3, 1:1, 3:2 and 4:1 for the construction of the isobolograms.
# [6] = tested on: P. falciparum 3D7 strain; set-up: method as in PMID 23798988; conditions: reported potency of Malaria Box compounds ref 13, read-out: Reported IC50^Pf; cited from earlier work
# [7] = tested on: P. berghei NK65 strain; assay: In vivo suppressive parasite growth test against Plasmodium berghei; set-up: species or system Swiss outbred mice; conditions: 20 mg/kg, positive control, P. berghei-infected mice
# Procedure: A suppressive parasite growth test was performed in mice infected with P. berghei NK65 strain (originally received from the New York University Medical School), as described previously, with some modifications. Briefly, adult Swiss outbred mice (20 ± 2 g weight) were intraperitoneally inoculated with 1 × 10^5 red blood cells infected with P. berghei. The infected mice were maintained together for at least 2 h and then randomized into groups of 5 animals per cage, which were subsequently administered 50 mg/kg of each compound diluted in 3% (v/v) DMSO by oral gavage daily for 3 days. Two control groups were used in parallel: one was treated with CQ (20 mg/kg) and the other was treated with the vehicle. Blood smears from mouse tails were prepared on days 5 and 7 post-infection and then fixed with methanol, stained with Giemsa 10% (v/v), and examined under the microscope.
SMILES,IC50 [1] [µM],IC50 [2] [µM],IC50 [3] [µM],Parasite morphology during incubation [4],Speed of action [4],"Isobologram data, Additive: fraction of FIC50 pairs [5] [%]","Isobologram data, Additive: number of FIC50 pairs [5]","Isobologram data, Antagonistic: fraction of FIC50 pairs [5] [%]","Isobologram data, Antagonistic: number of FIC50 pairs [5]","Isobologram data, Synergic: number of FIC50 pairs [5]",Combination profile with artesunate ([5]; listed as 07),IC50 [6] [µM],Combination profile with artesunate ([5]; listed as 04),Combination profile with artesunate ([5]; listed as 05),Combination profile with artesunate [5],"% of reduction of parasitaemia, day 5 after infection [7] [%]","% of reduction of parasitaemia, day 7 after infection [7] [%]",Combination profile with artesunate ([5]; listed as 01),Combination profile with artesunate ([5]; listed as 03)
O=C(Nc1ccc(C23CC4CC(CC(c5ccccc5)(C4)C2)C3)cc1)c1cccs1 [Compound 7],1,> 25,> 25,punctual shapes after 16 h,fast-acting and Fast,22,2,78,7,0,Antagonism,0.826,–,–,–,–,–,–,–
Fc1ccc2[nH]c3c(NCCCN4CCOCC4)ncnc3c2c1 [Compound 11],1.6,> 50,> 50,punctual shapes after 16 h,Fast,–,0,100,12,0,–,0.345,–,–,antagonistic; also recorded: Antagonism,–,–,–,–
"CCN(CC)CCCC(C)Nc1ccnc2cc(Cl)ccc12 (centres unmarked) [Chloroquine, reference compound]",–,–,–,–,–,–,–,–,–,–,–,–,–,–,–,100,100,–,–

# The next lines start with results.
IC50 [1] [µM],SMILES,IC50 [2] [µM],IC50 [3] [µM],Parasite morphology during incubation [4],Speed of action [4],"Isobologram data, Additive: fraction of FIC50 pairs [5] [%]","Isobologram data, Additive: number of FIC50 pairs [5]","Isobologram data, Antagonistic: fraction of FIC50 pairs [5] [%]","Isobologram data, Antagonistic: number of FIC50 pairs [5]","Isobologram data, Synergic: number of FIC50 pairs [5]",Combination profile with artesunate ([5]; listed as 07),IC50 [6] [µM],Combination profile with artesunate ([5]; listed as 04),Combination profile with artesunate ([5]; listed as 05),Combination profile with artesunate [5],"% of reduction of parasitaemia, day 5 after infection [7] [%]","% of reduction of parasitaemia, day 7 after infection [7] [%]",Combination profile with artesunate ([5]; listed as 01),Combination profile with artesunate ([5]; listed as 03)
0.44,O=[N+]([O-])c1ccc(C=NNc2nc3ccccc3[nH]2)cc1 [Compound 4],> 6.25,> 6.25,young trophozoites were observed after 36 h,slow-acting and Slow,8,1,92,12,0,–,0.142,Antagonism,–,–,–,–,–,–
0.25,CCn1c(CN2CCN(Cc3ccccc3)CC2)nc2cc(NC(=O)c3cccs3)ccc21 [Compound 5],90,> 100,punctual shapes after 16 h,fast-acting and Fast,15,2,85,11,0,–,0.512,–,Antagonism,–,–,–,–,–
0.074,CN1CCN(c2ccc(Nc3c4ccccc4nc4ccccc34)cc2)CC1 [Compound 1],3.21,3.34,pyknotic nuclei formation,Fast,8,1,92,11,0,–,0.142,–,–,antagonistic,–,–,Antagonism,–
0.34,Brc1ccc(Nc2nc3ccccc3nc2Nc2ccc(Br)cc2)cc1 [Compound 3],5.1,> 6.25,punctual shapes after 16 h,Fast,38,5,62,8,0,–,1.06,–,–,–,–,–,–,Antagonism

# Source: publication PMC6938011, “Antiplasmodial profile of selected compounds from Malaria Box: in vitro evaluation, speed of action and drug combination studies” (Malaria Journal, 2019)
